Source: PMC11869128, “Bayesian Optimization over Multiple Experimental Fidelities Accelerates Automated Discovery of Drug Molecules” (ACS Central Science, 2025)
Like-named read-outs stand apart in the source and are kept apart here.

Legend:
HDAC [1] = test: HDAC fluorometric assay, single-point percent inhibition (medium fidelity); format: biochemical; conditions: for IC50: first iteration, assuming binding follows the Hill equation and is noncooperative, assay run at 20 μM scale, read-out: IC50 corresponding to single point inhibition
Text: In the first iteration, the experimental design algorithm recommended that 3,385 candidates be docked (39% of budget), 261 candidates screened for single-point percent inhibition (61% of budget), and no candidates be manually synthesized for full dose–response characterization (0% of budget). The total budget was 100.0 with the same experiment cost structure of 0.01 for docking, 0.2 for single-point, and 1.0 for dose response curve. Docking was automatically performed with DiffDock, and the resulting conformers scored based on their binding to the catalytic zinc ion and overlap with bound known inhibitors from X-ray crystallography. For the candidates selected for automatic synthesis, the reactions were batched by temperature into well plates to be run in parallel on the automated platform. With a maximum allowance of 6 well plates, the platform attempted to synthesize 79 candidates, with an average of 2.4 reaction steps required for each candidate. Based on observation of the expected mass-to-charge ratio (m/z) during automatic HPLC-MS analysis, 40 of the syntheses were successful. The successful syntheses were automatically purified with semipreparative HPLC, the concentration of the inhibitor was automatically estimated,[47] and the fluorometric inhibition assay was automatically run at 20 μM scale. The structures, synthesis plans, assay scores, and statistics for the attempted molecules are in the SI.

HDAC [2] = conditions: cited from earlier work
HDAC [3] = test: HDAC fluorometric assay, dose-response curve (high fidelity); conditions: read-out: IC50 (Dose-Response Curve), manually synthesized molecules
Description: HDAC inhibition is automatically measured in a plate reader with a fluorometric assay (Abcam ab283378). In the plate-based assay, the liquid handler first dispenses individual purified products in dimethyl sulfoxide into each well, then adds buffer containing HDAC and a peptide substrate containing an acetylated lysine residue. The solution is agitated and incubated for 30 min at 37 °C, then a developer, which reacts with primary amines to form a fluorescent product, is dispensed and incubated for another 30 min. After the second incubation, the plate is transferred to the plate reader to measure fluorescence corresponding to uninhibited HDAC activity. The platform handles all aspects of the assay; dispensing reagents, timing incubation, transferring plates, preparing positive and negative controls, and analyzing fluorescent readouts without human input.

O=C1CCc2cc(Nn3cnnc3)ccc21 [5-((1,2,4-triazol-4-yl)amino)-indan-1-one]
inhibition in the single-point assay (HDAC [1]; second iteration, automated synthesis and assay): 11%

CC(C)(C)N(S(C)(=O)=O)S(=O)(=O)c1cccc(Br)c1 [a]
IC50 (HDAC [1]): 1140 nM

Cc1ccc(S(=O)(=O)N(c2ccc([N+](=O)[O-])cc2)C2CCC2)cc1 [b]
IC50 (HDAC [1]): 3310 nM

O=[N+]([O-])c1ccc(N(S(=O)(=O)c2cccc3cccnc23)S(=O)(=O)C(F)(F)F)cc1 [c]
IC50 (HDAC [1]): 7250 nM

CCN(CC)Cc1ccc2cc(COC(=O)Nc3ccc(C(=O)NO)cc3)ccc2c1 [givinostat]
IC50 (HDAC [2]; FDA approved hydroxamate): 837 nM

CC(/C=C/C(=O)NO)=C\[C@@H](C)C(=O)c1ccc(N(C)C)cc1 [trichostatin A]
IC50 (HDAC [3]): 1.8 nM

CCCC(CCC)C(=O)O [valproate]
IC50 (HDAC [2]; FDA approved nonhydroxamate inhibitor): 180000 nM
